Results published in US8735152B2, “Methods for inducing cell death in pluripotent stem cells and differentiated cells other than cardiac myocytes” (Daiichi Sankyo Company, Limited, priority 2009, dated 2014).

Key:
[1] = test system: marmoset embryonic stem cells; assay: Cell death inducing effect on marmoset embryonic stem cells (TMRM FACS, 5-day adherent culture); type: cell-based; conditions: 0.45 M, 2 hours
Procedure: The marmoset embryonic stem cells were obtained from the Central Institute for Experimental Animals (Stem Cells, 2005 October; 23(9): 1304-13). The cells were cultured basically in accordance with the method described in this document. To be more specific, the marmoset embryonic stem cells were cultured to maintain their undifferentiated state using mouse embryonic fibroblasts (MEF) that had been inactivated for growth by treatment with mitomycin C. The culture medium of KO-DMEM (GIBCO), supplemented with 20% KO-SERUM (GIBCO), 1.6 mM L-glutamine, 0.1 mM non-essential amino acids (MEM), 0.2 mM β-mercaptoethanol (2-ME; Sigma), 100 IU/ml penicillin, 100 μg/ml streptomycin sulfate, and 8 ng/ml recombinant human leukemia inhibiting factor (LIF; Chemicon) or recombinant human basic fibroblast growth factor (bFGF; Peprotech) was used. Upon passaging, the cells were treated with 0.1% type III collagenase (Wortington) at 37° C. for 10 minutes to separate ES colonies. […] Thereafter, the cells treated with mannitol for 2 hours and the control cells were analyzed by FACS for the level of mitochondrial membrane potential on the basis of the fluorescent intensity of TMRM to check the state of survival of the stem cells; the results are shown in FIG. 5. […]

[2] = test system: mouse embryonic stem cells; assay: Cell death inducing effect of low-concentration mannitol on mouse embryonic stem cells (adhesion, morphology); type: cell-based; conditions: 0.2 M
Procedure: Embryonic stem cells as cultured by the method described in Example 1 were cultured for an additional 48 or 72 hours in an α-MEM culture medium containing 0.2 M mannitol (approximately equivalent to 480 mOsm/kg); thereafter, the stem cells were checked for the state of their survival in terms of cell adhesion or non-adhesion and by morphological observation; the results are shown in FIG. 15.

For `OC[C@@H](O)[C@@H](O)[C@H](O)[C@H](O)CO` [mannitol], the “Mitochondrial membrane potential (TMRM fluorescence, FACS)” value [1] was “almost all of the cells treated with mannitol for 2 hours had lost membrane potential”, the “Survival after adherent culture for 5 days” value ([1]; then 5 days adherent culture) was “none of the cells exposed to mannitol were found alive” and the “State of survival (cell adhesion, morphology)” value ([2]; 48 hours) was “almost all colonies had already detached from the culture dish”. The “State of survival (cell adhesion, morphology)” value ([2]; 72 hours) was “the cells were completely dead”.
